Earlier results in US20010046548A1, “Anticholesterolemic edible oil” (priority 1998, published 2001).

| SMILES | fraction absorbed (ingested, small intestine) | absorption (in vivo) |
| --- | --- | --- |
| CC[C@H](CC[C@@H](C)[C@H]1CC[C@H]2[C@@H]3CC=C4C[C@@H](O)CC[C@]4(C)[C@H]3CC[C@]12C)C(C)C [beta-sitosterol] | less than 5% |  |
| CC[C@H](CC[C@@H](C)[C@H]1CC[C@H]2[C@@H]3CC[C@H]4C[C@@H](O)CC[C@]4(C)[C@H]3CC[C@]12C)C(C)C [sitostanol] |  | completely unabsorbed |
